Laboratory results taken from patent publication US20230399312A1, “SUBSTITUTED PYRIMIDINES AND METHODS OF USE” (THERAVANCE BIOPHARMA R&D IP, LLC, priority 2020, published 2023).

Columns and labels:
[1] = biological target: T1, recombinant human ALK5 (TGF-βR1) protein (Homo sapiens, UniProt P36897); experiment: Biochemical ALK5 (TGF-βR1) assay to measure pKi (LANCE Ultra ULight kinase assay); details: apparent pKi, converted from pIC50 by Cheng-Prusoff
T1 construct: purchased Life Technologies PR9075A
T1 sequence (P36897 34-503): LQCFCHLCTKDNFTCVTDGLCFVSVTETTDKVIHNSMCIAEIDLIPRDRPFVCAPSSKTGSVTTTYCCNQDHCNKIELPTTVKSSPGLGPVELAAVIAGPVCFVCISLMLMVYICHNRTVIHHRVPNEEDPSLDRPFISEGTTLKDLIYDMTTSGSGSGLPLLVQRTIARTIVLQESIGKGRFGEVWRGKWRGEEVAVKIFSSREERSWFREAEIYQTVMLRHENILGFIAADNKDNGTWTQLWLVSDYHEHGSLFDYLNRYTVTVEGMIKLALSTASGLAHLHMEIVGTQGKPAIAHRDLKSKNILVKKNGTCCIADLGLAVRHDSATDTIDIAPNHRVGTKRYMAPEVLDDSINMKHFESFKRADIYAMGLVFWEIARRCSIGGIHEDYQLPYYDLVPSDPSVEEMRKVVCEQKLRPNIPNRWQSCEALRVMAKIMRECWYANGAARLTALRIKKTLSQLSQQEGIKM
Summary of the method: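 Enzyme preincubated with compound for 60 min at room temperature, then reacted with ATP (125 μM as 5× stock) for 60 min at 37 °C. Stopped with EDTA plus Eu-anti-phospho-Topoisomerase 2-alpha (Thr1342) antibody and read by TR-FRET at 665 nm. pIC50 from a 4-parameter fit, converted to pKi by Cheng-Prusoff.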

[2] = test system: TGF-β-stimulated SMAD3 phosphorylation in BEAS-2B cells; experiment: Cellular ALK5 potency assay, inhibition of TGF-β stimulated pSMAD3 formation in BEAS-2B cells; format: cell-based; details: Homo sapiens, pSMAD3, TGF-β 10 ng/mL, read-out: BEAS2B pIC50 (converted)
Summary of the method: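 Human lung epithelial BEAS-2B cells were preincubated 1 h at 37 °C with compound in HBSS/HEPES/1% BSA, then stimulated 30 min with 10 ng/mL TGF-β. pSMAD3 in lysates was quantified by AlphaLISA relative to untreated stimulated cells; reported as pIC50.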

Compound | Ki [1] [nM] | IC50 [2] [nM]
Cc1cccc(-c2nccc(Nc3ccnc(Nc4cncc(CN5CC(C(=O)O[C@@H]6CCNC6)C5)c4)n3)n2)n1 [Compound 642, [(3R)-pyrrolidin-3-yl] 1-[[5-[[4-[[2-(6-methyl-2-pyridyl)pyrimidin-4-yl]amino]pyrimidin-2-yl]amino]-3-pyridyl]methyl]azetidine-3-carboxylate] | 0.0398 to 0.316 | 25.1 to 158
Cc1cccc(-c2cccc(Nc3ccnc(Nc4ccc(N5CCOCC5)cc4)n3)n2)n1 [Compound 1000, N4-[6-(6-methyl-2-pyridyl)-2-pyridyl]-N2-(4-morpholinophenyl)pyrimidine-2,4-diamine] | 3.98 to 31.6 | 25.1 to 158
Cc1cccc(-c2cc(Nc3ccnc(Nc4ccc(N5CCOCC5)cc4)n3)c3cc[nH]c3n2)n1 [Compound 1001, N4-[6-(6-methyl-2-pyridyl)-1H-pyrrolo[2,3-b]pyridin-4-yl]-N2-(4-morpholinophenyl)pyrimidine-2,4-diamine] | 0.398 to 3.16 | 200 to 1260
Cc1cccc(-c2nc(Nc3ccnc(Nc4ccc(N5CCOCC5)cc4)n3)ccc2C#N)n1 [Compound 1003, 2-(6-methyl-2-pyridyl)-6-[[2-(4-morpholinoanilino)pyrimidin-4-yl]amino]pyridine-3-carbonitrile] | 3.98 to 31.6 | 200 to 1260
CCNC(=O)Cc1cc(Nc2ccnc(Nc3ccc(N4CCNCC4)cc3)n2)nc(-c2cccc(C)n2)n1 [Compound 1006, N-ethyl-2-[2-(6-methyl-2-pyridyl)-6-[[2-(4-piperazin-1-ylanilino)pyrimidin-4-yl]amino]pyrimidin-4-yl] acetamide] | 0.398 to 3.16 | 200 to 1260
Cc1cccc(-c2nc(CC(=O)NCC(C)C)cc(Nc3ccnc(Nc4ccc(N5CCNCC5)cc4)n3)n2)n1 [Compound 1009, N-isobutyl-2-[2-(6-methyl-2-pyridyl)-6-[[2-(4-piperazin-1-ylanilino)pyrimidin-4-yl]amino]pyrimidin-4-yl] acetamide] | 0.398 to 3.16 | 200 to 1260
COC(=O)c1cc(Nc2ccnc(Nc3ccc(N4CCN(C)CC4)cc3)n2)nc(-c2cccc(C)n2)n1 [Compound 1010, methyl 6-[[2-[4-(4-methylpiperazin-1-yl)anilino]pyrimidin-4-yl]amino]-2-(6-methyl-2-pyridyl)pyrimidine-4-carboxylate] | 0.0398 to 0.316 | 200 to 1260
Cc1cccc(-c2nc(Nc3ccnc(Nc4ccc(N5CCNCC5)cc4)n3)cc(-c3c[nH]nn3)n2)n1 [Compound 1012, N4-[2-(6-methyl-2-pyridyl)-6-(1H-triazol-4-yl)pyrimidin-4-yl]-N2-(4-piperazin-1-ylphenyl)pyrimidine-2,4-diamine] | 0.0398 to 0.316 | 1580 to 10000
Fc1ccc(Cl)cc1-c1ncc(C2CC2)c(Nc2ccnc(Nc3ccc(N4CCNCC4)cc3)n2)n1 [Compound 1013, N4-[2-(5-chloro-2-fluoro-phenyl)-5-cyclopropyl-pyrimidin-4-yl]-N2-(4-piperazin-1-ylphenyl)pyrimidine-2,4-diamine] | 0.0398 to 0.316 | 200 to 1260
Cc1cccc(-c2nc(Nc3ccnc(Nc4ccc(N)cc4)n3)c3cccn3n2)n1 [Compound 1015, N2-(4-aminophenyl)-N4-[2-(6-methyl-2-pyridyl)pyrrolo[2,1-f][1,2,4]triazin-4-yl]pyrimidine-2,4-diamine] | 0.0398 to 0.316 | 25.1 to 158
Cc1cccc(-c2nc(Nc3ccnc(Nc4ccc(NCC5CNC5)cc4)n3)c3cccn3n2)n1 [Compound 1016, N2-[4-(azetidin-3-ylmethylamino)phenyl]-N4-[2-(6-methyl-2-pyridyl)pyrrolo[2,1-f][1,2,4]triazin-4-yl]pyrimidine-2,4-diamine] | 0.0398 to 0.316 | 25.1 to 158
Cc1cccc(-c2nc(Nc3ccnc(Nc4cccc(C(=O)O)c4)n3)c3cccn3n2)n1 [Compound 1017, 3-[[4-[[2-(6-methyl-2-pyridyl)pyrrolo[2,1-f][1,2,4]triazin-4-yl]amino]pyrimidin-2-yl]amino]benzoic acid] | 0.398 to 3.16 | 200 to 1260
Cc1cccc(-c2nc(Nc3ccnc(Nc4ccc(CC(=O)O)cc4)n3)c3cccn3n2)n1 [Compound 1018, 2-[4-[[4-[[2-(6-methyl-2-pyridyl)pyrrolo[2,1-f][1,2,4]triazin-4-yl]amino]pyrimidin-2-yl]amino]phenyl]acetic acid] | 0.0398 to 0.316 | 25.1 to 158
COC(=O)Cc1ccc(Nc2nccc(Nc3nc(-c4cccc(C)n4)nn4cccc34)n2)cc1 [Compound 1019, methyl 2-[4-[[4-[[2-(6-methyl-2-pyridyl)pyrrolo[2,1-f][1,2,4]triazin-4-yl]amino]pyrimidin-2-yl]amino]phenyl]acetate] | 0.398 to 3.16 | 200 to 1260
Cc1cccc(-c2nc(Nc3ccnc(Nc4ccc(C(=O)O)cn4)n3)c3cccn3n2)n1 [Compound 1020] | 3.98 to 31.6 | 200 to 1260
Cc1cccc(-c2nc(Nc3ccnc(Nc4ccc(C(=O)O)cc4)n3)c3cccn3n2)n1 [Compound 1021, 4-[[4-[[2-(6-methyl-2-pyridyl)pyrrolo[2,1-f][1,2,4]triazin-4-yl]amino]pyrimidin-2-yl]amino]benzoic acid] | 0.398 to 3.16 | 25.1 to 158
Cc1cccc(-c2nc(Nc3ccnc(Nc4nc(C(=O)O)cs4)n3)c3cccn3n2)n1 [Compound 1022, 2-[[4-[[2-(6-methyl-2-pyridyl)pyrrolo[2,1-f][1,2,4]triazin-4-yl]amino]pyrimidin-2-yl]amino]thiazole-4-carboxylic acid] | 0.398 to 3.16 | 200 to 1260
Cc1cccc(-c2nc(Nc3ccnc(Nc4csc(C(=O)O)c4)n3)c3cccn3n2)n1 [Compound 1023, 4-[[4-[[2-(6-methyl-2-pyridyl)pyrrolo[2,1-f][1,2,4]triazin-4-yl]amino]pyrimidin-2-yl]amino]thiophene-2-carboxylic acid] | 0.398 to 3.16 | 200 to 1260
COC(=O)c1ccc(Nc2nccc(Nc3nc(-c4cccc(C)n4)nn4cccc34)n2)cn1 [Compound 1024, methyl 5-[[4-[[2-(6-methyl-2-pyridyl)pyrrolo[2,1-f][1,2,4]triazin-4-yl]amino]pyrimidin-2-yl]amino]pyridine-2-carboxylate] | 0.0398 to 0.316 | 25.1 to 158
Cc1cccc(-c2nc(Nc3ccnc(Nc4cc(C(=O)O)cs4)n3)c3cccn3n2)n1 [Compound 1025, 5-[[4-[[2-(6-methyl-2-pyridyl)pyrrolo[2,1-f][1,2,4]triazin-4-yl]amino]pyrimidin-2-yl]amino]thiophene-3-carboxylic acid] | 0.0398 to 0.316 | 25.1 to 158
Cc1cccc(-c2nc(Nc3ccnc(Nc4ccc(NC(=O)C5CNC5)cc4)n3)c3cccn3n2)n1 [Compound 1026, N-[4-[[4-[[2-(6-methyl-2-pyridyl)pyrrolo[2,1-f][1,2,4]triazin-4-yl]amino]pyrimidin-2-yl]amino]phenyl]azetidine-3-carboxamide] | 0.0398 to 0.316 | 25.1 to 158
Cc1cccc(-c2nc(Nc3ccnc(Nc4ccc(NC(=O)C5CCNC5)cc4)n3)c3cccn3n2)n1 (stereo not shown) [Compound 1027, N-[4-[[4-[[2-(6-methyl-2-pyridyl)pyrrolo[2,1-f][1,2,4]triazin-4-yl]amino]pyrimidin-2-yl]amino]phenyl]pyrrolidine-3-carboxamide] | 0.0398 to 0.316 | 25.1 to 158
Cc1cccc(-c2nc(Nc3ccnc(Nc4ccc(NC(=O)C5CCNCC5)cc4)n3)c3cccn3n2)n1 [Compound 1028, N-[4-[[4-[[2-(6-methyl-2-pyridyl)pyrrolo[2,1-f][1,2,4]triazin-4-yl]amino]pyrimidin-2-yl]amino]phenyl]piperidine-4-carboxamide] | 0.0398 to 0.316 | 25.1 to 158
Cc1cccc(-c2nc(Nc3ccnc(Nc4ccc(NC(=O)CC5CNC5)cc4)n3)c3cccn3n2)n1 [Compound 1029, 2-(azetidin-3-yl)-N-[4-[[4-[[2-(6-methyl-2-pyridyl)pyrrolo[2,1-f][1,2,4]triazin-4-yl]amino]pyrimidin-2-yl]amino]phenyl]acetamide] | 0.0398 to 0.316 | 25.1 to 158
Cc1cccc(-c2nc(Nc3ccnc(Nc4ccc(NC(=O)[C@H]5C[C@@H](N)C5)cc4)n3)c3cccn3n2)n1 [Compound 1030, 3-amino-N-[4-[[4-[[2-(6-methyl-2-pyridyl)pyrrolo[2,1-f][1,2,4]triazin-4-yl]amino]pyrimidin-2-yl]amino]phenyl] cyclobutanecarboxamide] | 0.0398 to 0.316 | 25.1 to 158
Cc1cccc(-c2nc(Nc3ccnc(Nc4ccc(NC(=O)C5(CO)CNC5)cc4)n3)c3cccn3n2)n1 [Compound 1031, 3-(hydroxymethyl)-N-[4-[[4-[[2-(6-methyl-2-pyridyl)pyrrolo[2,1-f][1,2,4]triazin-4-yl]amino]pyrimidin-2-yl]amino]phenyl]azetidine-3-carboxamide] | 0.0398 to 0.316 | 25.1 to 158
